Drawing on PubChem BioAssay AID1745844 (Carcinogenic Potency Database (CPDB), 2022), this text covers TD50 and carcinogen call for six molecules.

The source made the active and inactive calls. How the calls were made is not given here.

In this series the test system is rodent lifetime carcinogenesis bioassay, tumor incidence TD50. The series is described as follows: chronic cancer bioassays in animals – CPDB, compiled studies (AID 1745844).

For orientation: TD50 means the 50% point of the dose-response relation for the toxic effect studied. Consider `O=C1C=C(N2CC2)C(=O)C(N2CC2)=C1N1CC1`, for which the TD50 is, setting by setting: (rat, strain BR 46, males, i.v., site: any site (literature study), lesion: benign tumor, dosed 52 weeks, study length 104 weeks) 0.032 mg/kg/day; (rat, strain BR 46, males, i.v., site: any site (literature study), lesion: malignant tumor, dosed 52 weeks, study length 104 weeks) 0.00677 mg/kg/day; (rat, strain BR 46, males, i.v., site: any site (literature study), lesion: several types, types named in the paper, dosed 52 weeks, study length 104 weeks) 0.00504 mg/kg/day; (rat, strain BR 46, males, i.v., site: liver, lesion: liver-cell carcinoma, dosed 52 weeks, study length 104 weeks) 0.0653 mg/kg/day.
Regarding `OCC(O)CCl` (stereo unspecified), the carcinogen call (rat, strain Charles River CD (Sprague-Dawley), females, by gavage, site: parathyroid, lesion: adenoma, dosed 72 weeks, study length 104 weeks) is “negative (inactive)”. The TD50 (rat, strain Charles River CD (Sprague-Dawley), males, by gavage, site: parathyroid, lesion: adenoma, dosed 72 weeks, study length 104 weeks) was determined as 116 mg/kg/day.
On to `S=c1[nH]c2ccccc2s1`, for which the carcinogen call is, setting by setting: (mouse, strain B6AKF1, females, oral dosing, site: any site (literature study), lesion: several types, types named in the paper, dosed 76 weeks, study length 76 weeks) “negative (inactive)”; (mouse, strain B6AKF1, females, oral dosing, site: liver, lesion: hepatoma, dosed 76 weeks, study length 76 weeks) “negative (inactive)”; (mouse, strain B6AKF1, females, oral dosing, site: lung, lesion: adenoma, dosed 76 weeks, study length 76 weeks) “negative (inactive)”; (mouse, strain B6AKF1, males, oral dosing, site: liver, lesion: hepatoma, dosed 76 weeks, study length 76 weeks) “negative (inactive)”; (mouse, strain B6AKF1, males, oral dosing, site: lung, lesion: adenoma, dosed 76 weeks, study length 76 weeks) “negative (inactive)”; (mouse, strain B6C3F1, females, oral dosing, site: liver, lesion: hepatoma, dosed 76 weeks, study length 76 weeks) “negative (inactive)”. Moreover, the TD50 is 105 mg/kg/day (inactive) (mouse, strain B6AKF1, males, oral dosing, site: any site (literature study), lesion: several types, types named in the paper, dosed 76 weeks, study length 76 weeks); 2160 mg/kg/day (mouse, strain B6C3F1, females, by gavage, site: liver, lesion: hepatocellular adenoma + hepatocellular carcinoma + neoplastic nodule, dosed 103 weeks, study length 104 weeks); 2160 mg/kg/day (mouse, strain B6C3F1, females, by gavage, site: liver, lesion: hepatocellular adenoma + hepatocellular carcinoma, dosed 103 weeks, study length 104 weeks); 283 mg/kg/day (inactive) (mouse, strain B6C3F1, females, oral dosing, site: any site (literature study), lesion: several types, types named in the paper, dosed 76 weeks, study length 76 weeks); 283 mg/kg/day (inactive) (mouse, strain B6C3F1, females, oral dosing, site: lung, lesion: adenoma, dosed 76 weeks, study length 76 weeks); 3330 mg/kg/day (inactive) (mouse, strain B6C3F1, males, by gavage, site: any site (literature study), lesion: several types, types named in the paper, dosed 103 weeks, study length 104 weeks). Moreover, the TD50 is, setting by setting: (mouse, strain B6C3F1, males, by gavage, site: liver, lesion: hepatocellular adenoma + hepatocellular carcinoma + neoplastic nodule, dosed 103 weeks, study length 104 weeks) 3700 mg/kg/day; (mouse, strain B6C3F1, males, oral dosing, site: any site (literature study), lesion: several types, types named in the paper, dosed 76 weeks, study length 76 weeks) 17 mg/kg/day (inactive); (mouse, strain B6C3F1, males, oral dosing, site: liver, lesion: hepatoma, dosed 76 weeks, study length 76 weeks) 56.2 mg/kg/day (inactive); (mouse, strain B6C3F1, males, oral dosing, site: lung, lesion: adenoma, dosed 76 weeks, study length 76 weeks) 120 mg/kg/day (inactive); (rat, strain Fischer 344, females, by gavage, site: adrenal medulla + pituitary gland, anterior, lesion: pheochromocytoma + adenoma, NOS, dosed 103 weeks, study length 104 weeks) 247 mg/kg/day; (rat, strain Fischer 344, females, by gavage, site: adrenal medulla, lesion: pheochromocytoma, dosed 103 weeks, study length 104 weeks) 805 mg/kg/day. The TD50 reads like this: (rat, strain Fischer 344, females, by gavage, site: any site (literature study), lesion: several types, types named in the paper, dosed 103 weeks, study length 104 weeks) 576 mg/kg/day; (rat, strain Fischer 344, females, by gavage, site: pituitary gland, anterior, lesion: adenoma, NOS, dosed 103 weeks, study length 104 weeks) 343 mg/kg/day; (rat, strain Fischer 344, males, by gavage, site: adrenal medulla + multiple organs + pancreas + preputial gland, lesion: pheochromocytoma + pheochromocytoma, malignant + mononuclear-cell leukemia + acinar-cell adenoma + adenoma, NOS + carcinoma, NOS, dosed 103 weeks, study length 104 weeks) 157 mg/kg/day; (rat, strain Fischer 344, males, by gavage, site: adrenal medulla, lesion: pheochromocytoma + pheochromocytoma, malignant, dosed 103 weeks, study length 104 weeks) 394 mg/kg/day; (rat, strain Fischer 344, males, by gavage, site: any site (literature study), lesion: several types, types named in the paper, dosed 103 weeks, study length 104 weeks) 136 mg/kg/day; (rat, strain Fischer 344, males, by gavage, site: multiple organs + tunica albuginea, lesion: mesothelioma, malignant + mesothelioma, NOS, dosed 103 weeks, study length 104 weeks) 3200 mg/kg/day. Also, the TD50 is, setting by setting: (rat, strain Fischer 344, males, by gavage, site: multiple organs, lesion: mononuclear-cell leukemia, dosed 103 weeks, study length 104 weeks) 401 mg/kg/day; (rat, strain Fischer 344, males, by gavage, site: pancreas, lesion: acinar-cell adenoma, dosed 103 weeks, study length 104 weeks) 345 mg/kg/day; (rat, strain Fischer 344, males, by gavage, site: pituitary gland, anterior, lesion: adenoma, NOS, dosed 103 weeks, study length 104 weeks) 333 mg/kg/day; (rat, strain Fischer 344, males, by gavage, site: preputial gland, lesion: adenoma, NOS + carcinoma, NOS, dosed 103 weeks, study length 104 weeks) 1580 mg/kg/day; (rat, strain Fischer 344, males, by gavage, site: preputial gland, lesion: adenoma, NOS, dosed 103 weeks, study length 104 weeks) 1710 mg/kg/day; (rat, strain Fischer 344, males, by gavage, site: subcutaneous tissue, lesion: fibroma + neurofibroma, dosed 103 weeks, study length 104 weeks) 1900 mg/kg/day. For the same molecule, the TD50 is, setting by setting: (rat, strain Fischer 344, males, by gavage, site: subcutaneous tissue, lesion: fibroma, dosed 103 weeks, study length 104 weeks) 2200 mg/kg/day; (rat, strain Fischer 344, males, by gavage, site: subcutaneous tissue, lesion: fibrosarcoma + fibroma + neurofibroma + sarcoma, NOS, dosed 103 weeks, study length 104 weeks) 1730 mg/kg/day; (rat, strain Fischer 344, males, by gavage, site: testis, lesion: interstitial-cell tumor, dosed 103 weeks, study length 104 weeks) 240 mg/kg/day.
Regarding `COC(=O)[C@H]1[C@H]2C[C@@H]3c4[nH]c5ccccc5c4CCN3C[C@H]2C[C@@H](OC(=O)c2cc(OC)c(OC)c(OC)c2)[C@@H]1OC`, the TD50 (rat, strain Wistar, both sexes, in feed, site: several sites, sites named in the paper, lesion: several types, types named in the paper, dosed 78 weeks, study length 78 weeks) is 1.28 mg/kg/day (inactive).
As to `COc1cc2c(c3c1c(=O)c1ccccc1n3C)C=CC(C)(C)O2`, the TD50 runs as follows: (mouse, strain B6C3F1, females, i.p., site: liver, lesion: hepatocellular adenoma + hepatocellular carcinoma + neoplastic nodule, dosed 48 weeks, study length 78 weeks) 2.46 mg/kg/day; (mouse, strain B6C3F1, females, i.p., site: lung, lesion: alveolar/bronchiolar adenoma + alveolar/bronchiolar carcinoma, dosed 48 weeks, study length 78 weeks) 2.46 mg/kg/day; (rat, strain Sprague-Dawley, females, i.p., site: any site (literature study), lesion: several types, types named in the paper, dosed 52 weeks, study length 80 weeks) 0.568 mg/kg/day; (rat, strain Sprague-Dawley, females, i.p., site: liver, lesion: hepatocellular adenoma + hepatocellular carcinoma + neoplastic nodule, dosed 52 weeks, study length 80 weeks) 8.75 mg/kg/day; (rat, strain Sprague-Dawley, females, i.p., site: mammary gland + peritoneum, lesion: adenocarcinoma, NOS + cystadenocarcinoma, NOS + cystadenoma, NOS + fibroadenoma + papillary adenocarcinoma + fibrosarcoma + mesothel, dosed 52 weeks, study length 80 weeks) 0.873 mg/kg/day; (rat, strain Sprague-Dawley, females, i.p., site: mammary gland, lesion: adenocarcinoma, NOS + cystadenocarcinoma, NOS + cystadenoma, NOS + fibroadenoma + papillary adenocarcinoma, dosed 52 weeks, study length 80 weeks) 0.395 mg/kg/day. Also, the TD50 runs as follows: (rat, strain Sprague-Dawley, females, i.p., site: mammary gland, lesion: fibroadenoma, dosed 52 weeks, study length 80 weeks) 0.455 mg/kg/day; (rat, strain Sprague-Dawley, females, i.p., site: peritoneum, lesion: fibrosarcoma + mesothelioma, malignant + sarcoma, NOS, dosed 52 weeks, study length 80 weeks) 5.86 mg/kg/day; (rat, strain Sprague-Dawley, females, i.p., site: peritoneum, lesion: sarcoma, NOS, dosed 52 weeks, study length 80 weeks) 11.4 mg/kg/day; (rat, strain Sprague-Dawley, males, i.p., site: adrenal gland, lesion: cortical adenoma, dosed 51 weeks, study length 80 weeks) 1.85 mg/kg/day; (rat, strain Sprague-Dawley, males, i.p., site: all sites + bone + peritoneum + vertebra, lesion: osteosarcoma + fibrosarcoma + mesothelioma, NOS + mesothelioma, malignant + sarcoma, NOS, dosed 51 weeks, study length 80 weeks) 0.497 mg/kg/day; (rat, strain Sprague-Dawley, males, i.p., site: all sites, lesion: osteosarcoma, dosed 51 weeks, study length 80 weeks) 0.698 mg/kg/day. In addition, the TD50 is 0.227 mg/kg/day (rat, strain Sprague-Dawley, males, i.p., site: any site (literature study), lesion: several types, types named in the paper, dosed 51 weeks, study length 80 weeks); 1.03 mg/kg/day (rat, strain Sprague-Dawley, males, i.p., site: bone + vertebra, lesion: osteosarcoma, dosed 51 weeks, study length 80 weeks); 2.11 mg/kg/day (rat, strain Sprague-Dawley, males, i.p., site: liver, lesion: hepatocellular adenoma + hepatocellular carcinoma + neoplastic nodule, dosed 51 weeks, study length 80 weeks); 1.49 mg/kg/day (rat, strain Sprague-Dawley, males, i.p., site: peritoneum, lesion: fibrosarcoma + mesothelioma, NOS + mesothelioma, malignant + sarcoma, NOS, dosed 51 weeks, study length 80 weeks).
As to `CCN=c1cc2oc3cc(NCC)c(C)cc3c(-c3ccccc3C(=O)OCC)c-2cc1C`, the carcinogen call (mouse, strain B6C3F1, females, in feed, site: any site (literature study), lesion: several types, types named in the paper, dosed 103 weeks, study length 105 weeks) was “negative (inactive)”. Also, the TD50 is 1210 mg/kg/day (inactive) (mouse, strain B6C3F1, males, in feed, site: thyroid gland, lesion: follicular-cell adenoma + follicular-cell carcinoma, dosed 103 weeks, study length 105 weeks); 47.1 mg/kg/day (rat, strain Fischer 344, females, in feed, site: adrenal medulla, lesion: pheochromocytoma, malignant + pheochromocytoma, benign, dosed 103 weeks, study length 105 weeks); 553 mg/kg/day (rat, strain Fischer 344, males, in feed, site: liver, lesion: hepatocellular adenoma + hepatocellular carcinoma + neoplastic nodule, dosed 103 weeks, study length 105 weeks); 34.5 mg/kg/day (rat, strain Fischer 344, males, in feed, site: skin, lesion: keratoacanthoma, dosed 103 weeks, study length 105 weeks).
